Experiment [1] has as its target GST-Ubr-box of Ubr1 (Homo sapiens (Human), UniProt Q8IWV7). As to the kind of experiment: Competition fluorescence polarization (FP) assay, GST-Ubr-box of Ubr1. It counts as binding. The following applies: for Ki: [GST-UBR1]=2 μM, tracer 9 nM, read-out: UBR1 Affinity Ki FP. The source says: (§1) Fluorescence Polarization (FP) assays were used to determine binding affinity of the peptidomimetic compounds for the Ubr box (FIGS. 4A-B). FIG. 1A depicts the mechanism of action of peptidomimetic compounds that include a linker. […] Binding affinities as determined by Structure Activity Relationship Studies (SARs) of additional peptidomimetic compounds to GST-Ubr-box of Ubr 1 and Ubr2 are shown in Table 1.
(§2) The FP assay uses a tetrapeptide with a sequence arginine-isoleucine-phenylalanine-serine (RIFS) with fluorescein attached to the C-terminus as tracer that was previously shown to bind to the Ubr-boxes of Ubr1 and Ubr2 with similar binding affinity. Assays were developed in 384-well plates, which were read on a Clariostar Reader. Signal-to-background ratio (S/B) was optimized by varying concentrations of GST-Ubr-box and tracer concentrations. GST-fusion proteins were used due to its larger size than Ubr-box alone to increase the FP effect. […] The optimized condition includes receptor concentration [GST-UBR1]=2 μM, tracer concentration [tracer]=9 nM, and the highest concentration of unlabeled peptidomimetic compound competitors at 200 μM with 3× serial dilutions.
(§3) Preliminary ITC measurements confirmed the FP measurements (FIG. 4C).
Background: Polarisation of emitted light reports the rotation of a fluorescent probe.

The target of experiment [2] is GST-Ubr-box of Ubr2 (Homo sapiens (Human), UniProt Q8IWV8). Kind of experiment: Competition fluorescence polarization (FP) assay, GST-Ubr-box of Ubr2. It counts as binding. The following applies: read-out: UBR2 Affinity Ki FP.
Chain of GST-Ubr-box of Ubr2 (Q8IWV8 other isoform, or with tags, fused parts or gaps): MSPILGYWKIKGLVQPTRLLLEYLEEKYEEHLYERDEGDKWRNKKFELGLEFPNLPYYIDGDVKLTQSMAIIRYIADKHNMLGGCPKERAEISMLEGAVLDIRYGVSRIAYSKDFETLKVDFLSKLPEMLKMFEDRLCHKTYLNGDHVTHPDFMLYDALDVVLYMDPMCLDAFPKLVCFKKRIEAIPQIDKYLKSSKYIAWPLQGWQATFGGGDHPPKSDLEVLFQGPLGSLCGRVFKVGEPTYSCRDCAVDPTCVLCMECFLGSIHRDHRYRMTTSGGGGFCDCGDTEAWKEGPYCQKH
From the text: as §1, §2, §3

Experiment [3] deals with Ubr-mediated GFP degradation (Ubiquitin-R-GFP model Ubr substrate). As to the kind of experiment: R-GFP degradation in cells (fluorescent imaging). It counts as cell-based. To be noted: cells expressing Ubiquitin-R-GFP. The source says: The peptidomimetic compound outcompetes the R-GFP model Ubr substrate for E3 binding, therefore preventing GFP degradation. The upper panels show fluorescent imaging of the cells and the lower panel show a bright field of the cells.

The target in experiment [4] is Ubr-box of Ubr1 (Homo sapiens (Human), UniProt Q8IWV7). Kind of experiment: FP titration of GST-Ubr-box into tracer, Ubr1. The experiment is classed as binding. The following applies: 9 nM tracer.
Chain of Ubr-box of Ubr1 (Q8IWV7 other isoform, or with tags, fused parts or gaps): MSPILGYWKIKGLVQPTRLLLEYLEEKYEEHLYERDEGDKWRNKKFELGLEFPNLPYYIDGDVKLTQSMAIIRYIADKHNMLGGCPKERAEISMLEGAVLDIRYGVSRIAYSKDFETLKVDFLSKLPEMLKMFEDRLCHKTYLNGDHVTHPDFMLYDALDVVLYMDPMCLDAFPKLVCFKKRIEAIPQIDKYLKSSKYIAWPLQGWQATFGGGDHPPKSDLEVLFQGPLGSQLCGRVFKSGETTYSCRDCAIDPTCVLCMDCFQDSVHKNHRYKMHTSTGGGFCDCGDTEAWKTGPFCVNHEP
From the text: as §2, §3

Experiment [5] deals with Ubr-box of Ubr2 (Homo sapiens (Human), UniProt Q8IWV8). Kind of experiment: FP titration of GST-Ubr-box into tracer, Ubr2. It counts as binding. To be noted: 9 nM tracer.
Chain of Ubr-box of Ubr2 (Q8IWV8 other isoform, or with tags, fused parts or gaps): as the sequence (Q8IWV8 other isoform, or with tags, fused parts or gaps) above
From the text: as §2, §3

Non-standard residues stand in square brackets, D forms with d. Residues, ends and D or L forms follow the SMILES beside them. No end group written: not given here. ξ: configuration not given here. Tyr(3-NO2) = N[C@@H](Cc1ccc(O)c([N+](=O)[O-])c1)C(=O)O; dPhe(4-guanidino) = N=C(N)Nc1ccc(C[C@@H](N)C(=O)O)cc1; fluorescein = fluorescein attached to the C-terminus; Phe(4-guanidino) = N=C(N)Nc1ccc(C[C@H](N)C(=O)O)cc1; Tyr(3-F) = N[C@@H](Cc1ccc(O)c(F)c1)C(=O)O; Arg(Me2a) = CN(C)C(=N)NCCC[C@H](N)C(=O)O; Phe(4-NH2) = Nc1ccc(C[C@H](N)C(=O)O)cc1; His(τ-Me) = Cn1cnc(C[C@H](N)C(=O)O)c1; His(π-Me) = Cn1cncc1C[C@H](N)C(=O)O; 4Pal = N[C@@H](Cc1ccncc1)C(=O)O; 2Thi = N[C@@H](Cc1cccs1)C(=O)O; Ile(3ξ) = CCC(C)[C@H](N)C(=O)O

Chain of GST-Ubr-box of Ubr1 (Q8IWV7 other isoform, or with tags, fused parts or gaps): as the sequence (Q8IWV7 other isoform, or with tags, fused parts or gaps) above

As a reminder, the Ki is the equilibrium dissociation constant of an inhibitor or competing ligand from its target. As for `N=C(N)NCCC[C@H](N)C(=O)N[C@@H](Cc1ccc(O)c([N+](=O)[O-])c1)C(=O)N[C@@H](Cc1ccccc1)C(N)=O` [Compound 1], the Ki in experiment [1] and in experiment [2] was 1 to 10 µM in each case.

As to `CC[C@H](C)[C@H](NC(=O)[C@@H](N)Cc1ccc(N=C(N)N)cc1)C(=O)N[C@@H](Cc1ccccc1)C(N)=O` [Compound 2] (H-[Phe(4-guanidino)]-Ile-Phe-NH2), the Ki in experiment [1] was 1 to 10 µM; in experiment [2] it was below 1 µM.

Consider `CC[C@H](C)[C@H](NC(=O)[C@@H](N)CCONC(=N)N)C(=O)N[C@@H](Cc1ccccc1)C(N)=O` [Compound 3], for which the Ki in experiment [1] and in experiment [2] was 10 to 100 µM throughout.

As to `CC[C@H](C)[C@H](NC(=O)[C@@H](N)CCCNC(=N)NCC(F)(F)F)C(=O)N[C@@H](Cc1ccccc1)C(N)=O` [Compound 4], the inhibitory constant (Ki) in experiment [1] and in experiment [2] was below 1 µM in each case. For the same compound, the “concentration at which R-GFP degradation in cells is blocked” value in experiment [3] was above 1 µM.

Consider `CC[C@H](C)[C@H](NC(=O)[C@@H](N)Cc1ccc(NC(N)=O)cc1)C(=O)N[C@@H](Cc1ccccc1)C(N)=O` [Compound 5], for which the values for the inhibition constant Ki in experiment [1] and in experiment [2] were above 100 µM and 10 to 100 µM, respectively.

Consider `CC[C@H](C)[C@H](NC(=O)[C@@H](N)CCCN(C)C(=N)NC)C(=O)N[C@@H](Cc1ccccc1)C(N)=O` [Compound 6], for which the Ki in experiment [1] and in experiment [2] was above 100 µM each time.

In the case of `CNC(=N)N(C)CCC[C@H](N)C(=O)N[C@@H](Cc1ccc(O)c(C)c1)C(=O)N[C@@H](Cc1ccccc1)C(N)=O` [Compound 7], the Ki in experiment [1] and in experiment [2] was 10 to 100 µM in each case.

As for `CC[C@H](C)[C@H](NC(=O)[C@@H](N)Cc1nn[nH]n1)C(=O)N[C@@H](Cc1ccccc1)C(N)=O` [Compound 8], the Ki in experiment [1] and in experiment [2] was above 100 µM each time.

For `CCNC(=N)N(CC)CCC[C@H](N)C(=O)N[C@H](C(=O)N[C@@H](Cc1ccccc1)C(N)=O)[C@@H](C)CC` [Compound 9], the Ki in experiment [1] and in experiment [2] was 10 to 100 µM throughout.

Regarding `CC[C@H](C)[C@H](NC(=O)[C@@H](N)Cc1cncn1C)C(=O)N[C@@H](Cc1ccccc1)C(N)=O` [Compound 10] (H-[His(π-Me)]-Ile-Phe-NH2), the Ki in experiment [1] and in experiment [2] was above 100 µM each time.

As to `CNC(=N)N(C)CCC[C@H](N)C(=O)N[C@@H](Cc1ccc(O)c([N+](=O)[O-])c1)C(=O)N[C@@H](Cc1ccccc1)C(N)=O` [Compound 11], the Ki is 10 to 100 µM in experiment [1] and 1 to 10 µM in experiment [2].

On to `CNC(=N)N(C)CCC[C@H](N)C(=O)N[C@@H](Cc1ccc(O)c([N+](=O)[O-])c1)C(=O)N[C@@H](Cc1ccccc1)C(N)=O` [Compound 12], for which the inhibition constant Ki in experiment [1] was 1 to 10 µM; in experiment [2], below 1 µM.

In the case of `CC[C@H](C)[C@H](NC(=O)[C@@H](N)Cc1cn(C)cn1)C(=O)N[C@@H](Cc1ccccc1)C(N)=O` [Compound 13] (H-[His(τ-Me)]-Ile-Phe-NH2), the Ki in experiment [1] and in experiment [2] was above 100 µM in each case.

For the compound `COc1ccc(C[C@H](NC(=O)[C@@H](N)CCCNC(=N)NCC(F)(F)F)C(=O)N[C@@H](Cc2ccccc2)C(N)=O)cc1` [Compound 14], the inhibitory constant (Ki) in experiment [1] and in experiment [2] was below 1 µM in each case.

Turning to `COc1ccc(C[C@H](NC(=O)[C@@H](N)CCCNC(=N)N(C)C)C(=O)N[C@@H](Cc2ccccc2)C(N)=O)cc1` [Compound 15] (H-[Arg(Me2a)]-Tyr(Me)-Phe-NH2), the Ki in experiment [1] and in experiment [2] was below 1 µM in each case.

Turning to `COc1ccc(C[C@H](NC(=O)[C@H](N)Cc2ccc(N=C(N)N)cc2)C(=O)N[C@@H](Cc2ccccc2)C(N)=O)cc1` [Compound 16] (H-[dPhe(4-guanidino)]-Tyr(Me)-Phe-NH2), the inhibitory constant (Ki) in experiment [1] and in experiment [2] was below 1 µM each time.

As for `NCC(=O)N[C@@H](Cc1ccc(O)c([N+](=O)[O-])c1)C(N)=O` [Compound 17] (H-Gly-[Tyr(3-NO2)]-NH2), the Ki in experiment [1] and in experiment [2] was above 100 µM throughout.

Turning to `NC(=O)[C@H](Cc1ccccc1)NC(=O)[C@@H](N)Cc1ccc(O)c([N+](=O)[O-])c1` [Compound 18] (H-[Tyr(3-NO2)]-Phe-NH2), the inhibition constant Ki in experiment [1] and in experiment [2] was above 100 µM in each case.

Take `CN(C)C(=N)NCCC[C@H](N)C(=O)N[C@@H](Cc1ccc(O)c([N+](=O)[O-])c1)C(=O)N[C@@H](Cc1ccccc1)C(N)=O` [Compound 19] (H-[Arg(Me2a)]-[Tyr(3-NO2)]-Phe-NH2): the Ki in experiment [1] and in experiment [2] was below 1 µM throughout.

For `N=C(NCCC[C@H](N)C(=O)N[C@@H](Cc1ccc(O)c(Cl)c1)C(=O)N[C@@H](Cc1ccccc1)C(N)=O)NCC(F)(F)F` [Compound 20], the Ki in experiment [1] and in experiment [2] was below 1 µM in each case.

On to `CC[C@H](C)[C@H](NC(=O)[C@@H](N)Cc1cccs1)C(=O)N[C@@H](Cc1ccccc1)C(N)=O` [Compound 21] (H-[2Thi]-Ile-Phe-NH2), for which the Ki in experiment [1] and in experiment [2] was above 100 µM each time.

Take `CC[C@H](C)[C@H](NC(=O)[C@H](Cc1ccccc1)NC(=O)[C@@H](N)Cc1ccncc1)C(N)=O` [Compound 22] (H-[4Pal]-Phe-Ile-NH2): the inhibition constant (Ki) in experiment [1] and in experiment [2] was above 100 µM in each case.

Turning to `CC[C@H](C)[C@H](NC(=O)[C@@H](N)Cc1ccncc1)C(=O)N[C@@H](Cc1ccccc1)C(N)=O` [Compound 23] (H-[4Pal]-Ile-Phe-NH2), the inhibitory constant (Ki) in experiment [1] and in experiment [2] was above 100 µM in each case.

For the compound `CCC(C)[C@H](NC(=O)[C@@H](N)Cc1ccc(NC(C)=O)cc1)C(=O)N[C@@H](Cc1ccccc1)C(N)=O` (stereo partly shown) [Compound 24] (H-[Phe(4-NH2)](Ac)-[Ile(3ξ)]-Phe-NH2), the Ki in experiment [1] and in experiment [2] was 10 to 100 µM each time.

Turning to `N=C(N)NCCC[C@H](N)C(=O)N[C@@H](Cc1ccc(O)c(Cl)c1)C(=O)N[C@@H](Cc1ccccc1)C(N)=O` [Compound 25], the inhibition constant Ki in experiment [1] lay within 1 to 10 µM; in experiment [2], 10 to 100 µM.

For `CC(C[C@H](NC(=O)[C@@H](N)CCCNC(=N)N)C(=O)N[C@@H](Cc1ccccc1)C(N)=O)C(F)(F)F` (stereo partly shown) [Compound 26], the Ki in experiment [1] and in experiment [2] was below 1 µM throughout.

Turning to `CCC(C)C(NC(=O)[C@@H](N)CCCNC(=N)N)C(=O)N[C@@H](Cc1ccccc1)C(N)=O` (stereo partly shown) [Compound 27], the Ki in experiment [1] and in experiment [2] was 1 to 10 µM in each case.

Turning to `CN(C)C(=N)NCCC[C@H](N)C(=O)N[C@@H](Cc1ccc(O)c(F)c1)C(=O)N[C@@H](Cc1ccccc1)C(N)=O` [Compound 28] (H-[Arg(Me2a)]-[Tyr(3-F)]-Phe-NH2), the Ki in experiment [1] was below 1 µM; in experiment [2], 1 to 10 µM.

On to `CN(C)C(=N)NCCC[C@H](N)C(=O)N[C@@H](Cc1cscn1)C(=O)N[C@@H](Cc1ccccc1)C(N)=O` [Compound 29], for which the inhibition constant Ki in experiment [1] and in experiment [2] was 1 to 10 µM throughout.

As to `CN(C)C(=N)NCCC[C@H](N)C(=O)N[C@@H](Cc1cccs1)C(=O)N[C@@H](Cc1ccccc1)C(N)=O` [Compound 30], the values for the inhibition constant (Ki) in experiment [1] and in experiment [2] were below 1 µM and 1 to 10 µM, respectively.

Consider `CN(C)C(=N)NCCC[C@H](N)C(=O)N1CCC[C@H]1C(=O)N[C@@H](Cc1ccccc1)C(N)=O` [Compound 31] (H-[Arg(Me2a)]-Pro-Phe-NH2), for which the inhibitory constant (Ki) in experiment [1] and in experiment [2] was above 100 µM throughout.

Turning to `CC[C@H](C)[C@H](NC(=O)[C@@H](N)CCC/N=C(\N)N(C)C)C(=O)N[C@@H](Cc1ccccc1)C(N)=O` [Compound 32] (H-[Arg(Me2a)]-Ile-Phe-NH2), the Ki in experiment [1] and in experiment [2] was 1 to 10 µM throughout.

Take `N=C(NCCC[C@H](N)C(=O)N[C@@H](Cc1ccc(O)c([N+](=O)[O-])c1)C(=O)N[C@@H](Cc1ccccc1)C(N)=O)NCC(F)(F)F` [Compound 33]: the Ki in experiment [1] and in experiment [2] was below 1 µM throughout.

Regarding “tracer: tetrapeptide arginine-isoleucine-phenylalanine-serine (RIFS) with fluorescein attached to the C-terminus as tracer (RIFS-fluorescein)”, the “binding of tracer to Ubr-box of Ubr1” value in experiment [4] was “can bind”. The “binding of tracer to Ubr-box of Ubr2” value in experiment [5] was “can bind”.

On to “unlabeled tetrapeptide: unlabeled tetrapeptide (RIFS sequence without fluorescein tag) used as competitor [reference compound]”, for which the displacement of tracer entry in experiment [1] is recorded as “Effective displacement of tracer”.
